Values quoted from earlier work as cited in paper PMC3157551 (Bioconjugate chemistry, 2011).

## avidin: avidin (Pierce-Thermo), 128 amino acid biotin-binding protein
  dissociation half-time of biotin from avidin: 89 days
